Marks after values point to notes of the source that are not given here.
How the values were obtained:
[1] = cited from earlier work; for Photobleaching quantum yields: in water, low light intensities (up to 10^3 W/cm^2)
[2] = Spectral properties of the fluorinated rhodamines (absorption, emission, quantum yield, lifetime); assay type: physicochemical
Source text: Extinction coefficients (of the long wavelength maximum) which are lower than ca. 8×10^4 M^−1 cm^−1 indicate the presence of the closed non-fluorescent form.

[3] = Ground state depletion (GSDIM) pump-probe measurements in PVA matrix; assay type: physicochemical; conditions: for λem / λex: PVA matrix table; for Γfl, remaining fluorescence after 5 measurement cycles / Rfl, t=0, residual fluorescence after the pump-pulse: PVA matrix; for Γfl, remaining fluorescence after 5 measurement cycles: at one spot with the given power density; for Rfl, t=0, residual fluorescence after the pump-pulse: pump-pulse power density per dye 14-110 kW/cm^2
Source text: In this method, “off” and “on” switching of the fluorescence is achieved by transiently shelving the fluorophores into a meta-stable dark state. Upon the return of only a few isolated single molecules to the fluorescent singlet state, positions of these single light emitting spots can be imaged on a camera and localized with high precision. Upon repeating this procedure and acquiring many pictures, a super-resolution image can be reconstructed from the localized positions. A prerequisite of this method is that >70% of the ensemble of the applied fluorescent dyes can be shelved into a dark state at a time (to ensure the detection of isolated fluorescent spots at a time in a densely labeled sample) and that the fluorophores are bright enough, i.e., that they emit enough photons while being in the singlet on-state (to ensure high precision of localization).
Switching off of the laser leads to a recovery of the fluorescence ensemble within a characteristic recovery time of 150-450 ms (Table 5), indicating the shelving into a metastable dark state. The measurements were performed in a pump-probe mode, i.e., the residual level of fluorescence was probed with I<100 W/cm^2 for 0.5 ms after strong irradiation for 10 ms with the given laser intensity in Table 5.
Furthermore, recovery of the fluorescence can be accelerated by addition of UV light, which leads to an optically-induced depopulation of the dark states. Already 2-3 kW/cm^2 of 375 nm light recovers the fluorescence within an irradiation period of 0.5 ms. […] The accelerated recovery is important for samples with low density of labels, where the addition of UV light and thus acceleration of the return from a dark state helps to accelerate image acquisition. Photostabilities of the studied fluorescent dyes under the GSDIM conditions are different: 15-50 pump-probe cycles with a pump intensity of 14-110 kW/cm^2 bleach 30-95% of the whole ensemble.

[4] = system: living mammalian cells (PtK2); experiment: Membrane-permeation experiments in living cells, epifluorescence microscope; assay type: cell-based; conditions: 15 minutes
Protocol: FIG. 9. Membrane-permeation experiments of the presented dyes. Living mammalian cells (PtK2) were incubated for 15 minutes with a 50 μg dye/ml solution. The subcellular localization of the dye was imaged in an epifluorescence microscope. A: 46-H—CH2 CF3—H—H (16); B: 42-COOH (15); C: 23; D: 37-Me-Me-H (27); E: 42-H (14)-methylester; F: 33-H—H (18).
The most important prerequisite for fluorophores used in these labeling strategies is that sufficient amounts of it need to pass cellular membrane(s) to reach the target protein. In order to asses the permeability of the cell membrane to the fluorescent dyes described in the presented invention, living mammalian cells (PtK2) previously grown overnight on cover slips, were first subjected to either 500 μg dye/ml or 50 μg dye/ml in growth medium for 15 minutes. (The amount of dye used for labeling of SNAP-fusion proteins is below 5 μg dye/ml.) Then, the cells were washed with growth medium (without dye) for 15 minutes, and imaged using an epifluorescence microscope.

[5] = Photoresistance in aqueous solutions irradiated with 488 nm light (3 W/cm^2); assay type: physicochemical; conditions: for change in emission on irradiation: colored water solutions, several hours, 488 nm line of an Argon laser
Source text: The compounds also display an outstanding photostability when irradiated for a prolonged time. […] The initial absorption at the irradiation wavelength was the same for all solutions. […] After two hours of irradiation, compounds 14 and 15 retain more than 50% of the initial emission intensity and compound 14a has about 90% of the initial signal left.
FIG. 2. Photoresistance of selected compounds (14-17, 14a, and 16a in Table 2), and some commercially available fluorophores with the similar spectral properties (Alexa Fluor 488®, Rhodamine Green®, Oregon Green 488®, and Fluorescein) in aqueous solutions irradiated with 488 nm light (3 W/cm^2)

[6] = Fluorescence correlation spectroscopy (FCS) in aqueous solutions; assay type: physicochemical; conditions: aqueous solution, intensity range 0.1-2.0 MW/cm^2
Source text: FIG. 10. FCS curves obtained from Rh110-CO2 (left plot) and compound 17 (right plot), at low (0.1 MW/cm^2) and high (2 MW/cm^2) excitation intensity (dots: experimental data; lines: best fits).
In combination with modern highly sensitive detection technologies recently developed, the observation of a single or a few molecules has become readily available. Several techniques based on these measurements [such as the fluorescence fluctuation spectroscopy and fluorescence correlation spectroscopy (FCS)] advantageously reveal molecular properties otherwise hidden by averaging the ensemble. A common requirement for experiments involving a few or single molecules is the use of fluorescent dyes with high photostability especially at high excitation intensities of >100 kW/cm^2. For biological applications the use of water as a solvent is almost imperative. Low solubility in water is often associated with a high bleaching ratio, or lower fluorescence quantum yield in aqueous medium compared with that in organic solvents. […]
The excitation intensity of 115 kW/cm^2 (a value normally used in routinely FCS measurements) and at an excitation intensity of about an order of magnitude higher (2 MW/cm^2) have been used. […] An increase in the fraction of molecules in the triplet state can also be detected. […]

Compound | Photobleaching quantum yields [1] | ABSORPTION λMAX ([2]; aqueous buffer at pH 7) | EMISSION λMAX ([2]; aqueous buffer at pH 7) | ΦFL ([2]; aqueous buffer at pH 7) | τFL ([2]; aqueous buffer at pH 7) [ns] | ABSORPTION ε ([2]; methanol) [M⁻¹ cm⁻¹] | ABSORPTION λMAX ([2]; methanol) | EMISSION λMAX ([2]; methanol) | λem [3] [nm] | λex [3] [nm] | Γfl, remaining fluorescence after 5 measurement cycles [3] [%] | Rfl, t=0, residual fluorescence after the pump-pulse [3] [%] | Structures stained in living cells ([4]; 500 μg dye/ml) | ABSORPTION ε ([2]; aqueous buffer at pH 7) [M⁻¹ cm⁻¹] | initial emission intensity retained ([5]; after two hours of irradiation, 488 nm, 3 W/cm^2) | change of diffusion time with excitation intensity (bleaching) [6] | change in emission on irradiation [5] | Structures stained in living cells ([4]; 50 μg dye/ml) | stability relative to rhodamine 6G ([1]; high light intensities (up to 10^7 W/cm^2))
COC(=O)c1ccccc1-c1c2ccc(N)cc2[o+]c2cc(N)ccc12 [methyl ester of rhodamine 110] | 6.6 ×10^−7 | – | – | – | – | – | – | – | – | – | – | – | – | – | – | – | – | – | –
Nc1c(F)cc2c(c1S(=O)(=O)O)Oc1c(cc(F)c(N)c1S(=O)(=O)O)C21OC(=O)c2ccccc21 [Compound 12, 2,7-Difluoro-4,5-disulforhodamine] | – | 488 nm | 512 nm | 0.89 | 4.0 | 42000 | 498 nm | 514 nm | 512 | 488 | 20 | 8 | Nearly no stain visible. | – | – | – | – | – | –
CN(CCC(=O)O)C(=O)c1ccccc1-c1c2ccc(=NCC(F)(F)F)cc-2oc2cc(NCC(F)(F)F)ccc12.Cl [Compound 14a] | – | 510 nm | 531 nm | 0.86 | 4.2 | – | 512 nm | 534 nm | – | – | – | – | Mitochondrial stain visible. | 57000 | about 90% | – | – | – | –
carboxy rhodamine 110 [Rh110-CO2, reference compound] | – | – | – | – | – | – | – | – | – | – | – | – | – | – | – | shortening of the apparent diffusion characteristic time | – | – | –
CN(CCC(=O)O)C(=O)c1ccccc1-c1c2ccc(=NCC(F)(F)F)c(S(=O)(=O)O)c-2oc2c(S(=O)(=O)O)c(NCC(F)(F)F)ccc12 [Compound 16a] | – | 512 nm | 530 nm | 0.86 | 4.1 | 74000 | 517 nm | 536 nm | 530 | 512 | 35 | 25 | Cellular stain visible; bright | – | – | – | without any significant changes in their emission | – | –
2,7-Difluoro-N,N′-bis(2,2,2-trifluoroethyl)-4,5-disulforhodamine [Compound 20] | – | 506^a nm | 531^a nm | 0.66 | 3.2 | – | – | – | 531 | 506 | 50 | 25 | Nearly no stain visible. | 54000 | – | – | – | Dim cytoplasmatic stain with dots | –
CN(C)c1ccc2c(-c3ccccc3C(=O)[O-])c3ccc(N(C)C)cc3[o+]c2c1 [tetramethyl rhodamine] | 3.3 ×10^−7 | – | – | – | – | – | – | – | – | – | – | – | – | – | – | – | – | – | 4-5 times
CCN=c1cc2oc3cc(NCC)c(C)cc3c(-c3ccccc3C(=O)OCC)c-2cc1C.Cl [rhodamine 6G] | 12 ×10^−7 | – | – | – | – | – | – | – | – | – | – | – | – | – | – | – | – | – | –
COC(=O)CCN(C)C(=O)c1ccccc1-c1c2ccc(=NCC(F)(F)F)cc-2oc2cc(NCC(F)(F)F)ccc12 [Compound 44-Me] | – | – | – | – | – | 87000 | 512^b nm | 534^b nm | 534 | 512 | 90 | 8 | Cytoplasmatic stain visible. | – | – | – | – | – | –
O=C(O)c1ccc2c(c1)C(=O)OC21c2ccc(NCC(F)(F)F)c(S(=O)(=O)O)c2Oc2c1ccc(NCC(F)(F)F)c2S(=O)(=O)O [Compound 17, 5′-Carboxy-4,5-disulfo-N,N′-bis(2,2,2-trifluoroethyl)-rhodamine] | – | 501 nm | 524^a, 524^b nm | 0.96 | 3.9 | 86000 | 511 nm | 524^a, 524^b nm | 524 | 501 | 40 | 25 | Bright background staining visible. | – | – | no significant change in the diffusion time | without any significant changes in their emission | Dim cytoplasmatic stain with dots | –
O=C(O)c1ccccc1-c1c2ccc(=NCC(F)(F)F)c(S(=O)(=O)O)c-2oc2c(S(=O)(=O)O)c(NCC(F)(F)F)ccc12 [Compound 16, 4,5-Disulfo-N,N′-bis(2,2,2-trifluoroethyl)rhodamine] | – | 499 nm | 520 nm | 0.88 | 3.8 | 87000 | 507 nm | 524 nm | – | – | – | – | Dim cellular stain with brightly | – | – | – | without any significant changes in their emission | Dim cytoplasmatic stain with bright | –

Source: patent US8735444B2, “Fluorinated rhodamines as photostable fluorescent dyes for labelling and imaging techniques” (Max-Planck-Gesellschaft zur Foerderung der Wissenschaften …, priority 2009, dated 2014)
